Several values for one entry are separate records, joined by “and”; a condition that tells them apart may be missing. Equal entries are not always repeated.
Assays:
[1] = test system: T. gondii; assay: Real-time PCR (SAG1) on gDNA of mouse fecal samples; format: in vivo, Toxoplasma gondii; settings: gDNA of mouse fecal samples
Description: Delta-6-desaturase inhibition. SC 26196 (Cayman) was solubilized in DMSO and used at 20 μM in mouse organoid monolayers. For in vivo treatment, the inhibitor was solubilized in 0.5% m/v methylcellulose and the mice were given 50 mg/kg every 12 hours by oral gavage (He et al., 2012). 4-week old C57BL/6J female mice deleted in Z-DNA-binding protein (Pittman et al., 2016) were divided into four different groups: uninfected control, T. gondii-infected without fatty acid supplementation, T. gondii infected with linoleic acid supplementation, and T. gondii-infected with linoleic acid and SC 26196 inhibitor. Each mouse supplemented with linoleic acid received 10 μL of 99% linoleic acid oil (MilliporaSigma Cat #843483) suspended in 0.5% Methylcellulose per day by oral gavage. Mice were infected with 1000 brain cysts purified as described above by oral gavage and euthanized 7 days post infection. Sample size was at least 2 mice per group and the experiment was repeated 5 times. Alternatively, each mouse was infected with one mouse brain at least 2 months postinfection with at least 1000 cysts. Mice were treated with SC 26196 until day 5 postinfection. Feces were collected from days 5-14 and oocysts enumerated by microscopy.
Real-time PCR on fecal samples. […] A standard curve was generated using a dilution series of 101-105 parasites per well amplified using the SAG1 primer set described above, based on a gDNA sample with known parasite quantity. […]
[formula] […] The calculated copy numbers of each sample were normalized based on the ng of nucleic acid used as PCR template. […]
Statistical methods. […] The difference between the mean target gene copy numbers was analyzed by two-tailed unpaired t tests. […] The difference between the mean relative expression of each target gene was analyzed by two-tailed unpaired t tests.

[2] = test system: T. gondii ME49 bradyzoites; assay: qPCR of SAG1, GRA11B, TUB1A on cDNA of infected cat intestinal monolayers; format: cell-based, Toxoplasma gondii
Description: FIGS. 6A-B. Quantification of merozoites in cat tissue culture. A) Cat intestinal organoids were disassociated by trypsin then grown as monolayers on glass slides. Slides were divided into three different groups: not supplemented with fatty acid, supplemented with 200 μM oleic acid or supplemented 200 μM linoleic acid. Monolayers were infected with T. gondii MEM bradyzoites purified from brains of chronic infected mice at a 1:10 MOI. Five days after infection, staining for GRA11B and BRP1 along with DAPI, allowed the percentage of vacuoles positive for GRA11B and BRP1out of the total vacuoles was determined. Total number of parasitophorous vacuoles were counted by positive DAPI staining and confirmed by morphology with DIC. At least 50 parasitophorous vacuoles were counted per replicate. Three biological replicates were counted and on average 35% of the total vacuoles were positive far both GRA11B and BRP1 in the linoleic acid supplemented monolayers. *p-value=0.0126 with N=3 by two-tailed unpaired t test. Straining for both BRP1 and GRA11B was used to ensure that merozoite stages were counted. […] BRP1 is a rhoptry protein that was initially found in bradyzoites; however, it is also expressed in merozoite. B) Cat intestinal monolayers were grown as described in panel A, except monolayers were quenched by TRIzol 5 days post-infection, RNA was extracted, and cDNA was synthesized using an oligo (dT) primer to amplify mRNA, Expression of SAG1 and GRA11B were quantified by qPCR and the fold change calculated in comparison with uninfected cells. TUB1A was used to normalize gene expression across samples.
Real-time PCR on ileum cDNA. Z-DNA binding protein deletion mice ice with and without delta-6-desaturase inhibitor treatment were euthanized 7 days post infection. The ileum of each mouse was removed and homogenized in 1 mL of TRIzol. Total RNA was isolated according to manufacturer's protocol (Invitrogen) and treated with amplification grade Dnase I. cDNA was generated using the Invitrogen SuperScript III First-Strand Synthesis kit with random hexamer primers. GRA11B and SAG1 were used as markers of sexual and asexual stages, respectively. The T. gondii housekeeping gene TUB1A was used to normalize target gene expression. Real-time quantitative PCR was performed using Bio-Rad iTaq Universal SYBR Green Supermix on 311 an Applied Biosystems StepOnePlus Real-Time PCR system. The efficiency of each primer set was calculated from the slope of a 1:10 dilution standard curve of tachyzoite gDNA, where E=10^(−1/slope). The Pfaffl method (Pfaffl, 2001), which accounts for differences in efficiencies, was then used to calculate the relative gene expression of GRA11B and SAG1 per sample, in triplicate. Only wells with one melt curve temperature were used, indicating a single product. Primer sequences were as follows: […]

[3] = cat intestinal monolayers cDNA, biological replicates 1 and 2
[4] = cat intestinal monolayers cDNA, biological replicates 1 and 2, wells 1-3

SMILES: CCCCC/C=C\C/C=C\CCCCCCCC(=O)O [linoleic acid]
- SAG1 Ct mean [1]: 35.84
- SAG1 raw Ct values ([1]; wells 1-3): 37.02 and 36.43 and 34.08
- GRA11B Ct mean [2, 3]: 26.44 and 27.75
- SAG1 Ct mean [2, 3]: 19.15 and 19.99
- GRA11B raw Ct values [2, 4]: 26.53 and 27.67 and 26.34 and 27.82 and 26.44 and 27.77
- SAG1 raw Ct values [2, 4]: 19.09 and 20.09 and 19.19 and 19.93 and 19.16 and 19.95
- GRA11B expression by qPCR (fold change versus uninfected cells, normalized to TUB1A) ([2]; cat intestinal monolayers, 200 μM, 5 days post-infection): significantly more abundant

— patent US12171821B2, “Toxoplasma gondii vaccine” (priority 2018, dated 2024)
